Experimental findings from US20230303569A1, “HETEROCYCLIC COMPOUNDS AS THERAPEUTIC AGENTS” (Arisan Therapeutics Inc., priority 2021, published 2023) are described below.

Like-named read-outs stand apart in the source and are kept apart here.

A word on the inhibition: it is the drop in the measured response relative to a control, in per cent.

What all share (assay type): cell-based
The target of data set [1] is T1, human Nav1.5 (late current) (Homo sapiens, UniProt Q14524).
T1 construct: host or cells: HEK293
The experiment in a line: Nav1.5 Late Current Assay (QPatch HT whole-cell patch clamp, 30 nM ATX-II). Conditions: HEK293 cells stably expressing human Nav1.5, pH 7.3, late current with 30 nM ATX-II, read-out: percent inhibition hNav1.5 Late (5 uM). The method, then:
(§1) In vitro Na+ Current Inhibition Assays were performed by Eurofins Discovery (St Charles, MO). All compound functional activity determinations were determined through electrophysiological analyses of Na+ currents in HEK293 cells expressing a stably transfected Na+ channel (human Nav1.1, 1.2, 1.3, 1.5, 1.6, 1.7, or 1.8). After harvesting with Accutase cells are maintained in serum free medium at room temperature prior to electrophysiological recording utilizing the QPatch HT automated whole-cell patch-clamp platform (Sophion Bioscience, Woburn MA). Stock solution aliquots of the test compound are prepared in DMSO at 300× the final assay concentrations, and stored at −20° C. until the day of assay. On the day of the assay, an aliquot of the stock solution is thawed and diluted into external solution (137 mM NaCl, 4 mM KCl, 1 mM MgCl2, 1.8 mM CaCl2, 10 mM HEPES, 10 mM Glucose (pH 7.3, titrated with 10M NaOH) to make final test concentrations. A final concentration of 0.33% DMSO is maintained for each concentration of the assay compounds. Internal solution for recordings of Na+ consist consists of 100 mM CsF, 45 mM CsCl, 5 mM NaCl, 10 mM HEPES, 5 mM EGTA (pH 7.3, titrated with 1M CsOH).
Onset and steady state induction of late Nav1.5 current was measured using a pulse pattern, repeated every 5 sec, consisting of a hyperpolarizing pulse to −120 mV for a 200 ms duration, depolarization to −15 mV amplitude for a 40 ms duration, followed by step to 40 mV for 200 ms and finally a 100 ms ramp (1.2 V/s) to a holding potential of −80 mV. Each concentration of compound was applied for 5 minutes. The assay was performed at room temperature. After establishing vehicle control condition, all further addition of external solutions contain 30 nM ATX-II to activate late currents. Each concentration of compound was also co-applied with 30 nM ATXII to estimate the Nav1.5 late current inhibition. […]. ATXII was used as the agonist positive control and was tested concurrently with the test compound. Ranolazine was used as the positive control and was tested concurrently with the test compound.
Nav1.5 late current was measured as the total charge flowing through the Nav1.5 channels (area under the curve) 5 ms after the Nav1.5 peak current till the end of the test pulse and as charge at their maxima during the ramp. Individual cell results were normalized to their respective vehicle control and the results were averaged. The sodium current was assessed in 30 nM ATXII as vehicle control conditions and then at the end of each five (5) minute compound application in the presence of 30 nM ATXII. Individual cell result was normalized to 30 nM ATXII vehicle control amplitude and the mean±SEM calculated for each compound concentration.
A general note: In patch-clamp work, channel activity is measured electrically.

For data set [2], the target named is T2, human Nav1.5 (peak current) (Homo sapiens, UniProt Q14524).
T2 construct: host or cells: HEK293
The experiment in a line: Nav1.5 Peak Current Assay (QPatch HT whole-cell patch clamp). The settings on record: HEK293 cells stably expressing human Nav1.5, pH 7.3, peak current at step to -15 mV, read-out: percent inhibition hNav1.5 Peak (5 uM). Here is the method: as §1
Onset and steady state block of peak Nav1.5 current was measured using a pulse pattern, repeated every 5 sec, consisting of a hyperpolarizing pulse to −120 mV for a 200 ms duration, depolarization to -15 mV amplitude for a 40 ms duration, followed by step to 40 mV for 200 ms and finally a 100 ms ramp (1.2 V/s) to a holding potential of −80 mV. Peak current was measured during the step to −15 mV.
Each concentration of compound was applied for 5 minutes. The assay was performed at room temperature and Tetracaine was used concurrently as a positive control. Only current amplitudes in excess of 200 pA at the control stage were analyzed. The amplitude of the sodium current was calculated by measuring the difference between the peak inward current on stepping to −15 mV (i.e. peak of the current) and the leak current. The sodium current was assessed in vehicle control conditions and then at the end of each five (5) minute compound application. Individual cell result was normalized to the vehicle control amplitude and the mean±SEM calculated for each compound concentration.

The next data set addresses T3, human Nav1.6 (Homo sapiens, UniProt Q9UQD0).
T3 construct: host or cells: HEK293
As to the kind of experiment: Two pulse assay protocol, Nav1.6. The settings on record: 5 uM, peak current. The method, then:
as §1
(§2) Two pulse assay protocol for human Nav1.1, 1.2, 1.3, 1.5, 1.6, 1.7, and 1.8 channels. Mammalian cultured cells expressing the indicated human Nav1.1, 1.2, 1.3, 1.5, 1.6, 1.7 or 1.8 channels were assayed using the The QPatch HT (Sophion Bioscience, Woburn MA) automated system with an intracellular solution (mM) of 100 CsF, 45 CsCl, 5 NaCl, 10 HEPES, 5 EGTA (pH 7.3, titrated with 1M CsOH) and extracellular solution (mM) of 137 NaCl, 4 KCl, 1 MgCl2, 1.8 CaCl2, 10 HEPES, 10 Glucose (pH 7.3, titrated with 10M NaOH). Onset and steady state block of the sodium channel was measured using a pulse pattern, repeated every 20 seconds (s) from a holding potential of −120 mV for 100 ms, and then pulsed to 0 mV for 500 ms to inactivate the Na channels and facilitate inactivated state-dependent binding of the test compounds. The cell membranes were then stepped back to −120 mV for 10 ms to recover from inactivation into resting or closed state (channels with test compound bound to them will not recover from inactivation and will not open) before stepping to 0 mV for 50 ms (pulse 2) to measure Na channels that are available to open. Peak current was measured during the step to 0 mV at pulse 1 and 2 to measure tonic and state-dependent inhibition. Compound activities were assessed by dividing post current amplitude (at the end of each five (5) minute compound application) by the vehicle control amplitude and the mean calculated for each compound concentration. Tetracaine was used as a positive control and was tested concurrently with the test compounds. Current amplitudes in excess of 200 pA at the control stage were analyzed. The amplitude of the current was calculated by measuring the difference between the peak inward current on stepping to 0 mV (i.e. peak of the current) and remaining current at the end of the step. The current was assessed in vehicle control conditions and then at the end of each five (5) minute compound application.

Another data set deals with T4, human Nav1.7 (Homo sapiens, UniProt Q15858).
T4 construct: host or cells: HEK293
As to the kind of experiment: Two pulse assay protocol, Nav1.7. Conditions: peak current. Here is the method: as §1, §2

For a further data set, the target named is T5, human Nav1.8 (Homo sapiens, UniProt Q9Y5Y9).
T5 construct: host or cells: HEK293
The experiment in a line: Two pulse assay protocol, Nav1.8. Conditions: peak current. Here is the method: as §1, §2

Data set [3] deals with T6, human Nav1.5 (pulse 1, tonic inhibition) (Homo sapiens, UniProt Q14524).
T6 construct: host or cells: HEK293
The experiment in a line: Two pulse assay protocol, Nav1.5. Conditions: HEK293 cells stably expressing human Nav1.5, pH 7.3, peak current, pulse 1 (tonic), read-out: percent inhibition hNav1.5, Pulse 1 (5 uM). The method, then:
as §1, §2

The target in data set [4] is T7, human Nav1.5 (pulse 2, state-dependent inhibition) (Homo sapiens, UniProt Q14524).
T7 construct: host or cells: HEK293
The experiment in a line: Two pulse assay protocol, Nav1.5. Conditions: HEK293 cells stably expressing human Nav1.5, pH 7.3, peak current, pulse 2 (state-dependent), read-out: percent inhibition hNav1.5, Pulse 2 (5 uM). The method, then:
as §1, §2

A further data set concerns the target T8, human Nav1.2 (Homo sapiens, UniProt Q99250).
T8 construct: host or cells: HEK293
As to the kind of experiment: Two pulse assay protocol, Nav1.2. The settings on record: peak current. Here is the method: as §1, §2

Where [5] appears, read: pulse 1 (tonic), read-out: percent inhibition hNav1.6, Pulse 1 (5 uM).
Where [6] appears, read: pulse 2 (state-dependent), read-out: percent inhibition hNav1.6, Pulse 2 (5 uM).
The mark [7] stands for this setting: pulse 1 (tonic), read-out: percent inhibition hNav1.7, Pulse 1 (5 uM).
[8] abbreviates: pulse 2 (state-dependent), read-out: percent inhibition hNav1.7, Pulse 2 (5 uM).
Setting [9] is: pulse 1 (tonic), read-out: percent inhibition hNav1.8, Pulse 1 (5 uM).
Where [10] appears, read: pulse 2 (state-dependent), read-out: percent inhibition hNav1.8, Pulse 2 (5 uM).
[11] abbreviates: pulse 1 (tonic), read-out: percent inhibition hNav1.2, Pulse 1 (5 uM).
Setting [12] is: pulse 2 (state-dependent), read-out: percent inhibition hNav1.2, Pulse 2 (5 uM).

T5 sequence (Q9Y5Y9 whole entry): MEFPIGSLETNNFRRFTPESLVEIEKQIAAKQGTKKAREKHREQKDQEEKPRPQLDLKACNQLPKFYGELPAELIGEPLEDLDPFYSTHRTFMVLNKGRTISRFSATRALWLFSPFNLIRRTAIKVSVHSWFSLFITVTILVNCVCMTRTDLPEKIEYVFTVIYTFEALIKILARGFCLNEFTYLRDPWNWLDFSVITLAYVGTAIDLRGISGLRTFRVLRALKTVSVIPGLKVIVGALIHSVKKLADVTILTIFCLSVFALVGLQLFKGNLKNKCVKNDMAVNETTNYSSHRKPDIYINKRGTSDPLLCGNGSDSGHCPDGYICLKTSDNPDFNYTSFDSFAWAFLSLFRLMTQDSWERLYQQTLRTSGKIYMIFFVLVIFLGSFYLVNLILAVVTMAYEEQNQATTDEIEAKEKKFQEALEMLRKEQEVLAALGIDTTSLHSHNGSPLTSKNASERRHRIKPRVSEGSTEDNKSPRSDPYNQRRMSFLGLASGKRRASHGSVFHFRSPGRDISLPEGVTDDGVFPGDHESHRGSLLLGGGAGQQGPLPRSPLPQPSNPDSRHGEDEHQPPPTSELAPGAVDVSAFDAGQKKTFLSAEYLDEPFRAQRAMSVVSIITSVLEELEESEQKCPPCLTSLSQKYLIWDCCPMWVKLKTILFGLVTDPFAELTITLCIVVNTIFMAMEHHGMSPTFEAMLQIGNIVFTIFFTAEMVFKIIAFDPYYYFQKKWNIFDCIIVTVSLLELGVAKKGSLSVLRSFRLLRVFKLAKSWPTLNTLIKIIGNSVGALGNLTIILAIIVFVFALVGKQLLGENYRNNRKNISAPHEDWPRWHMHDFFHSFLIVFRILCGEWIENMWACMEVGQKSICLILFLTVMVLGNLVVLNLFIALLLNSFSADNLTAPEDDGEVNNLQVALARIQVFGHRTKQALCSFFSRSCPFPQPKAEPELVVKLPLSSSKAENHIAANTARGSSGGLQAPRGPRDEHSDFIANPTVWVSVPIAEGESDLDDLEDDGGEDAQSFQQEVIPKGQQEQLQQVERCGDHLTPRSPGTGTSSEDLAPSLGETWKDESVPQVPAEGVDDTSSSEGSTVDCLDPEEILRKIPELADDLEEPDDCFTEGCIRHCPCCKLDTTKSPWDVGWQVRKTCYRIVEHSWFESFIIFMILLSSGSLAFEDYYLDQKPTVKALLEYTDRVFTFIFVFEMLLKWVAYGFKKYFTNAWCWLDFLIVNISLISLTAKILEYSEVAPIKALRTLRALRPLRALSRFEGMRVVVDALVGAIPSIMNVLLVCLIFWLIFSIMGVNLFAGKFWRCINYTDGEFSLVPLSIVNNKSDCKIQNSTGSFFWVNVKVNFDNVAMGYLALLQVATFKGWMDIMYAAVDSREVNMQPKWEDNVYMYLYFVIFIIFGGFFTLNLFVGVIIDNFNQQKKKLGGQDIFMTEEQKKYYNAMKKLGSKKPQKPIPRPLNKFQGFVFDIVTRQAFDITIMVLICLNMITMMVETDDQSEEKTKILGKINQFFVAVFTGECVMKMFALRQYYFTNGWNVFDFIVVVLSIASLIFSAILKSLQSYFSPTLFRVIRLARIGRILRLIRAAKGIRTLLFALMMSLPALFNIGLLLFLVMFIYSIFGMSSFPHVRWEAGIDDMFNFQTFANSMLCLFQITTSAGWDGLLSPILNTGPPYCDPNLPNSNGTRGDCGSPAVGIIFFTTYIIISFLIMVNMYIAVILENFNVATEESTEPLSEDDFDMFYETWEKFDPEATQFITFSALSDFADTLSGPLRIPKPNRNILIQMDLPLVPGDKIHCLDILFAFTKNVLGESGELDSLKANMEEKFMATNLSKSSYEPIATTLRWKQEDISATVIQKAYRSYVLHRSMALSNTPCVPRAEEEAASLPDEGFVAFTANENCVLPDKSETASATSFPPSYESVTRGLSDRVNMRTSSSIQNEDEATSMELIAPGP
T4 sequence (Q15858 whole entry): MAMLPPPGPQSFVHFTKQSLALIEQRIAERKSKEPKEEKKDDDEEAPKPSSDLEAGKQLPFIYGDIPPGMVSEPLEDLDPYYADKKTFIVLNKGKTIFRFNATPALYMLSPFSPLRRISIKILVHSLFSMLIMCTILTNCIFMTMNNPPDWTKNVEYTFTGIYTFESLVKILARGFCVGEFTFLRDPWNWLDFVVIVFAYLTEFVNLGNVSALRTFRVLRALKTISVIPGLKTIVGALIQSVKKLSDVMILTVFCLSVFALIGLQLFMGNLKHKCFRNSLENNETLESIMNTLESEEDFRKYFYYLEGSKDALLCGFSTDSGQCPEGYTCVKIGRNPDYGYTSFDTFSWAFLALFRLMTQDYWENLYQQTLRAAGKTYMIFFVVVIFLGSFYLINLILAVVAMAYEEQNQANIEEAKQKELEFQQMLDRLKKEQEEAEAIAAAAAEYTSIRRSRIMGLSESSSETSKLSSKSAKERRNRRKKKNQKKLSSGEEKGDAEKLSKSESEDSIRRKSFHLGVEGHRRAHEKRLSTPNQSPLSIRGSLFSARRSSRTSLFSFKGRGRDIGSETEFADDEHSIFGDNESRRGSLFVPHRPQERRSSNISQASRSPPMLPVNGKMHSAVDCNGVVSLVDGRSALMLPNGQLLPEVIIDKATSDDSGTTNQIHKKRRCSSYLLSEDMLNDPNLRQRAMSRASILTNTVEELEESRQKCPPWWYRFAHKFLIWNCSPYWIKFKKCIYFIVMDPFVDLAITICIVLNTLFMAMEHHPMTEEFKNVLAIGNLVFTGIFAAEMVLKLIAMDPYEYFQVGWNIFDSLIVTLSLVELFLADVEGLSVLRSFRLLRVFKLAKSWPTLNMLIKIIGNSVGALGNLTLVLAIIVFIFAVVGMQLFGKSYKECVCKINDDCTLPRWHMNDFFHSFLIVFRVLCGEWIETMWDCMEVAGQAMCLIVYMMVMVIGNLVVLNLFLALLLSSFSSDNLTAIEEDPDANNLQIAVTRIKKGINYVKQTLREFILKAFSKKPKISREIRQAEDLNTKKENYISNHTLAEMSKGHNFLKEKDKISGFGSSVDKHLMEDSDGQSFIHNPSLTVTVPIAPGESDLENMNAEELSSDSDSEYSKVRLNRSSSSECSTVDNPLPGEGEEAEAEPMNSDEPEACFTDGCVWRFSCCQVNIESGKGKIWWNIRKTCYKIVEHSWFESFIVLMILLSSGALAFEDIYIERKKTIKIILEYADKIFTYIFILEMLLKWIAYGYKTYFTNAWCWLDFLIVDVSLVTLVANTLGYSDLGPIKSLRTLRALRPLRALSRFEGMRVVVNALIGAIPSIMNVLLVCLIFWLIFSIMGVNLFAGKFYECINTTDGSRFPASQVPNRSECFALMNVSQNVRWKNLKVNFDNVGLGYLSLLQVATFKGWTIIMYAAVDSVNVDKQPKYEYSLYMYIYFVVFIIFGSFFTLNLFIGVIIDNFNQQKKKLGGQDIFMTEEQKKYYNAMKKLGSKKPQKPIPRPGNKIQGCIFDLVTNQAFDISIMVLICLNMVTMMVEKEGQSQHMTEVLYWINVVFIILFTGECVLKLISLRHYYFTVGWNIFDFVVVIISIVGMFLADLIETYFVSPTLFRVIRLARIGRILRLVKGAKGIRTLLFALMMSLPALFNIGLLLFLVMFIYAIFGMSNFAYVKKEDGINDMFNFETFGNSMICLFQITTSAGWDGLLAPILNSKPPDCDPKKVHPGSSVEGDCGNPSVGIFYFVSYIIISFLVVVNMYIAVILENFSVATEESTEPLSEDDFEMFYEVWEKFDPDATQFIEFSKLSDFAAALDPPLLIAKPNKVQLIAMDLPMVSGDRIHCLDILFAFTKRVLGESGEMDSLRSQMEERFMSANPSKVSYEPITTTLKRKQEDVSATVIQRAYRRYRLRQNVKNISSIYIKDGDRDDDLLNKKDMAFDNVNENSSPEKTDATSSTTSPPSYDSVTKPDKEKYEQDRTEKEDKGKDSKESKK

Consider `CC(C)Oc1ccc(-c2ccc3ncc(-c4ccc(OC(C)(C)C)cc4)n3c2)cc1` [Example C32, 3-[4-(tert-butoxy)phenyl]-6-[4-(propan-2-yloxy)phenyl]imidazo[1,2-a]pyridine], for which, in data set [1], the inhibition at 5 min, 5 uM was above 90%. In addition, in data set [2], the inhibition at 5 min, 5 µM lay within 50 to 90%. Moreover, the inhibition at 5 µM on human Nav1.6 (setting [5]) was below 50%; at human Nav1.6 (setting [6]), above 90%.
Take `CC(C)Oc1ccc(-c2ccc3ncc(-c4ccc(OC(C)C)nc4)n3c2)cc1` [Example C37, 2-(propan-2-yloxy)-5-{6-[4-(propan-2-yloxy)phenyl]imidazo[1,2-a]pyridin-3-yl}pyridine]: the inhibition at 5 min, 5 uM in data set [1] was above 90%. Also, the inhibition at 5 min, 5 µM in data set [2] was below 50%. Besides, the inhibition at 5 µM is below 50% on human Nav1.6 (setting [5]); above 90% at human Nav1.6 (setting [6]); below 50% at human Nav1.7 (setting [7]); above 90% on human Nav1.7 (setting [8]); below 50% on human Nav1.8 (setting [9]); 50 to 90% on human Nav1.8 (setting [10]).
Take `CS(=O)(=O)NC(=O)c1ccn2c(-c3ccc(OC(F)(F)F)cc3)cnc2c1` [Example C66, N-(methylsulfonyl)-3-(4-(trifluoromethoxy)phenyl)imidazo[1,2-a]pyridine-7-carboxamide]: the inhibition at 5 min, 5 µM in data set [3] and in data set [4] was below 50% each time. The inhibition at 5 µM on human Nav1.7 (setting [7]), at human Nav1.7 (setting [8]), on human Nav1.8 (setting [9]) and on human Nav1.8 (setting [10]) was below 50% in each case.
In the case of `CS(=O)(=O)NC(=O)c1cc2ncc(-c3ccc(OC(F)(F)F)cc3)n2cc1-c1ccc(OC(F)(F)F)cc1` [Example C67, N-(methylsulfonyl)-3,6-bis(4-(trifluoromethoxy)phenyl)imidazo[1,2-a]pyridine-7-carboxamide], the inhibition at 5 min, 5 µM in data set [3] and in data set [4] was below 50% in each case. Further, the inhibition at 5 µM at human Nav1.7 (setting [7]), on human Nav1.7 (setting [8]), on human Nav1.8 (setting [9]) and at human Nav1.8 (setting [10]) was below 50% each time.
Regarding `CS(=O)(=O)NC(=O)c1cc2ncc(-c3ccc(OC(F)(F)F)cc3)n2cc1-c1ccccc1` [Example C68, N-(methylsulfonyl)-6-phenyl-3-(4-(trifluoromethoxy)phenyl)imidazo[1,2-a]pyridine-7-carboxamide], the inhibition at 5 min, 5 µM in data set [3] and in data set [4] was below 50% throughout. Besides, the inhibition at 5 µM on human Nav1.7 (setting [7]), at human Nav1.7 (setting [8]), on human Nav1.8 (setting [9]) and at human Nav1.8 (setting [10]) was below 50% throughout.
Take `Cc1cc2ncc(-c3ccc(OC(C)C)nc3)n2cc1-c1ccc(OC(C)C)cc1` [Example C70, 6-(4-isopropoxyphenyl)-3-(6-isopropoxypyridin-3-yl)-7-methylimidazo[1,2-a]pyridine]: the inhibition at 5 min, 5 uM in data set [1] was in the range of 50 to 90%. Besides, in data set [2], the inhibition at 5 min, 5 µM was below 50%. Further, the inhibition at 5 µM on human Nav1.6 (setting [5]) and at human Nav1.6 (setting [6]) was below 50% in each case.
Take `CC(C)Oc1ccc(-c2ccc3ncc(-c4ccc(Oc5ccccc5)cc4)n3c2)cc1` [Example C72, 6-(4-isopropoxyphenyl)-3-(4-phenoxyphenyl)imidazo[1,2-a]pyridine]: the inhibition at 5 µM was below 50% at human Nav1.2 (setting [11]); above 90% on human Nav1.2 (setting [12]); below 50% at human Nav1.6 (setting [5]); above 90% on human Nav1.6 (setting [6]); below 50% on human Nav1.7 (setting [7]); above 90% at human Nav1.7 (setting [8]). Further, the inhibition at 5 min, 5 µM is below 50% in data set [3] and 50 to 90% in data set [4].
Turning to `CC(C)Oc1ccc(-c2ccc3ncc(-c4ccc(C(C)C)cc4)n3c2)cc1` [Example C73, 6-(4-isopropoxyphenyl)-3-(4-isopropylphenyl)imidazo[1,2-a]pyridine], the inhibition at 5 µM at human Nav1.2 (setting [11]) is below 50%; on human Nav1.2 (setting [12]), above 90%; on human Nav1.6 (setting [5]), below 50%; on human Nav1.6 (setting [6]) it was above 90%; at human Nav1.7 (setting [7]), below 50%; on human Nav1.7 (setting [8]) it was 50 to 90%. Also, the inhibition at 5 min, 5 µM in data set [3] was below 50%; in data set [4] it was above 90%.
`CC(C)Oc1ccc(-c2ccc3ncc(-c4ccc(OC(C)(C)C)nc4)n3c2)cc1` [Example C90, 3-(6-(tert-butoxy)pyridin-3-yl)-6-(4-isopropoxyphenyl)imidazo[1,2-a]pyridine]: the inhibition at 5 min, 5 µM was below 50% in data set [3] and above 90% in data set [4]. Further, the inhibition at 5 µM at human Nav1.6 (setting [5]) was below 50%; on human Nav1.6 (setting [6]), above 90%; on human Nav1.7 (setting [7]) it was below 50%; at human Nav1.7 (setting [8]), above 90%.
